Assay results published in PMC6472337, “L amino acid transporter structure and molecular bases for the asymmetry of substrate interaction” (Nature Communications, 2019).
Substitutions are numbered along the chain they refer to. “And” between values parts separate entries of the source, which are not always exact repeats. Identical values can stand only once. Like-named read-outs stand apart in the source and are kept apart here.

Legend:
[1] = molecular target: T1, hAsc-1 Y280F mutant (Homo sapiens, UniProt Q9NS82, Y280F); experiment: [3H]L-alanine uptake in HeLa cells, hAsc-1 Y280F; type: cell-based; conditions: WT = 100, n=1-3 and mean
T1 construct: expressed in transfected cells; host or cells: HeLa
T1 sequence (Q9NS82 1-523 Y280F): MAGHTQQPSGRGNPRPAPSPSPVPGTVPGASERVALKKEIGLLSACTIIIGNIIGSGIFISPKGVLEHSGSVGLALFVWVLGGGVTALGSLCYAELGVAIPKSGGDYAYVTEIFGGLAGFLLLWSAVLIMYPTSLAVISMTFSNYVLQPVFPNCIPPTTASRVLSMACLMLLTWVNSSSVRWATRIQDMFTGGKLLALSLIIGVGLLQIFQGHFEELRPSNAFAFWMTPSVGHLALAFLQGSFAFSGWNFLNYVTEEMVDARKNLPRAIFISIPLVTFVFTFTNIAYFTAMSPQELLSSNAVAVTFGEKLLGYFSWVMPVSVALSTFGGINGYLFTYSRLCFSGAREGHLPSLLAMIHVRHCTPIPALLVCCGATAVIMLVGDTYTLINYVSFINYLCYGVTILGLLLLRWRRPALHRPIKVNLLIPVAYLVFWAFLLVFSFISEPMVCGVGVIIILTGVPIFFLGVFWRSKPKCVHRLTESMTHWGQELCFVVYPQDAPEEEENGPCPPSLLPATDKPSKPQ
T1 sequence (P08195 1-529 partner): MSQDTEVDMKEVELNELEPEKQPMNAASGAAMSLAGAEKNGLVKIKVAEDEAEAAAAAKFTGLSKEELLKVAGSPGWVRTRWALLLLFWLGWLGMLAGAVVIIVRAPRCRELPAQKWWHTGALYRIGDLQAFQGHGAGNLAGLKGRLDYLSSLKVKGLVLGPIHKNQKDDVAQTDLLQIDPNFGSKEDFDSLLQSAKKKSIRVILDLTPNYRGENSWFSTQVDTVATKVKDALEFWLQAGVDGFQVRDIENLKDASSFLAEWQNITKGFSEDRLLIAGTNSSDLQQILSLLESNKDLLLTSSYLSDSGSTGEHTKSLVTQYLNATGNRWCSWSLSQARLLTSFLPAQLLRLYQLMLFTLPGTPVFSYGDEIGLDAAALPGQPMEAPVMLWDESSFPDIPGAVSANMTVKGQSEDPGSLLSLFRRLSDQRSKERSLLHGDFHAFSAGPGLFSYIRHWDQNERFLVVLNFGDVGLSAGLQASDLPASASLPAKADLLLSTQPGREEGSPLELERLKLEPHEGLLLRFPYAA
Description: All mutations were verified by sequencing.

[2] = molecular target: wild-type BasC; experiment: Thermostability-based L-alanine binding assay (GFP-fused protein, SEC); parameters: species or system Carnobacterium sp AT7; conditions: for Kd Wild-type binding curve, normalized signal: n=1-3
Method: (§1) GFP-fused BasC proteins purified in DM were incubated for 10 min at 4–60 °C (Y236F and K154A mutants) or 4–70 °C (wild-type). In total, 200 µl of 2 mg ml^−1 protein was used for each temperature point. Protein was then centrifuged at 186,000 × g for 30 min. […] Fractions (200 µl) were collected and measured for GFP fluorescence. The peak heights were normalized to those of samples incubated at 4 °C and were fit to the Hill equation using the GraphPad Prism 4 program (GraphPad Software Inc., San Diego, CA). Melting temperatures (Tm) were determined by fitting the curves to a sigmoidal dose-response equation, as previously described.
(§2) BasC-GFP proteins were then incubated at the calculated Tm for 10 min and centrifuged at 186,000 × g for 30 min. […] Binding affinities were determined by fitting the curves to a sigmoidal dose-response equation.

[3] = molecular target: BasC Y236F mutant; experiment: Thermostability-based L-alanine binding assay, Y236F; parameters: species or system Carnobacterium sp AT7; conditions: for Kd Y236F binding curve, normalized signal: n=1-3
Method: as §1, §2

[4] = molecular target: T2, hAsc-1 K194A mutant (Homo sapiens, UniProt Q9NS82, K194A); experiment: [3H]L-alanine uptake in HeLa cells, hAsc-1 K194A
T2 sequence (Q9NS82 1-523 K194A): T1 sequence (Q9NS82 1-523 Y280F) with K194A, F280Y
T2 sequence (P08195 1-529 partner): T1 sequence (P08195 1-529 partner)

SMILES: C[C@H](N)C(=O)O [L-alanine]
- transport of 10 µM [3H]L-alanine normalized to wild-type [1]: 133.65 and 128.34 and 128.02 and 123.34
- Kd ([2]; WT BasC, incubated at Tm, L-alanine 0–200 mM, read-out: KD (apparent, thermostability-based)): 34.5 ± 2.1 mM
- Kd Wild-type binding curve, normalized signal ([2]; [L-Alanine] 0.36 mM): 4.340 and 4.304 and 4.417
- Kd Wild-type binding curve, normalized signal ([2]; [L-Alanine] 1.50 mM): 6.609 and 6.614 and 8.554
- Kd Wild-type binding curve, normalized signal ([2]; [L-Alanine] 3.13 mM): 10.226 and 10.310 and 9.554
- Kd Wild-type binding curve, normalized signal ([2]; [L-Alanine] 6.25 mM): 16.111 and 16.814 and 19.554
- Kd Wild-type binding curve, normalized signal ([2]; [L-Alanine] 12.50 mM): 30.546 and 30.584 and 35.221
- Kd Wild-type binding curve, normalized signal ([2]; [L-Alanine] 25 mM): 47.282 and 48.296 and 50.554
- Kd Wild-type binding curve, normalized signal ([2]; [L-Alanine] 50 mM): 70.152 and 71.030 and 72.225
- Kd Wild-type binding curve, normalized signal ([2]; [L-Alanine] 100 mM): 82.376 and 81.876 and 86.554
- Kd Wild-type binding curve, normalized signal ([2]; [L-Alanine] 150 mM): 97.076 and 84.776 and 95.225
- Kd Wild-type binding curve, normalized signal ([2]; [L-Alanine] 200 mM): 100.000
- Kd ([2]; individual experiments n=1, n=2, n=3, read-out: Apparent Kd Wild type): 35.9 mM and 35.4 mM and 32.2 mM
- Kd ([2]; mean of n=3, read-out: Apparent Kd Wild type, mean): 34.5 mM
- Kd ([3]; Y236F, incubated at Tm, L-alanine 0–200 mM, read-out: KD (apparent, thermostability-based)): 42.3 ± 5 mM
- Kd Y236F binding curve, normalized signal ([3]; [L-Alanine] 6.25 mM): 22.582 and 17.176 and 16.654
- Kd Y236F binding curve, normalized signal ([3]; [L-Alanine] 12.50 mM): 33.547 and 26.076 and 17.575
- Kd Y236F binding curve, normalized signal ([3]; [L-Alanine] 25 mM): 44.758 and 42.547 and 31.773
- Kd Y236F binding curve, normalized signal ([3]; [L-Alanine] 50 mM): 72.230 and 70.914 and 57.702
- Kd Y236F binding curve, normalized signal ([3]; [L-Alanine] 100 mM): 89.225 and 96.379 and 94.240
- Kd Y236F binding curve, normalized signal ([3]; [L-Alanine] 150 mM): 94.446 and 95.445 and 86.456
- Kd Y236F binding curve, normalized signal ([3]; [L-Alanine] 200 mM): 100.000
- Kd ([3]; individual experiments n=1, n=2, n=3, read-out: Apparent Kd Y236F): 44.1 mM and 36.7 mM and 46.2 mM
- Kd ([3]; mean of n=3, read-out: Apparent Kd Y236F, mean): 42.3 mM
- reduction of Vmax vs. wild-type [4]: ~ 10 fold
- reduction of external apparent affinity vs. wild-type [4]: ~ 10 fold
